Laboratory results as given in ChEMBL document CHEMBL1201862, “PubChem BioAssay data set” (2004).
Active and inactive are the calls of the source. Cut-off read from the data, not from the text of the source: actives have a measured IC50 and inactives only a lower limit.

Target: Envelope glycoprotein gp160 (Human immunodeficiency virus 1, UniProt Q6QLK5)
Test: inhibitors of HIV fusion peptide binding, primary screen, biochemical, uHTS, fluorescence dequenching (AID 1986)

Sequence of Envelope glycoprotein gp160 (Q6QLK5 whole entry, the tested form may be a part): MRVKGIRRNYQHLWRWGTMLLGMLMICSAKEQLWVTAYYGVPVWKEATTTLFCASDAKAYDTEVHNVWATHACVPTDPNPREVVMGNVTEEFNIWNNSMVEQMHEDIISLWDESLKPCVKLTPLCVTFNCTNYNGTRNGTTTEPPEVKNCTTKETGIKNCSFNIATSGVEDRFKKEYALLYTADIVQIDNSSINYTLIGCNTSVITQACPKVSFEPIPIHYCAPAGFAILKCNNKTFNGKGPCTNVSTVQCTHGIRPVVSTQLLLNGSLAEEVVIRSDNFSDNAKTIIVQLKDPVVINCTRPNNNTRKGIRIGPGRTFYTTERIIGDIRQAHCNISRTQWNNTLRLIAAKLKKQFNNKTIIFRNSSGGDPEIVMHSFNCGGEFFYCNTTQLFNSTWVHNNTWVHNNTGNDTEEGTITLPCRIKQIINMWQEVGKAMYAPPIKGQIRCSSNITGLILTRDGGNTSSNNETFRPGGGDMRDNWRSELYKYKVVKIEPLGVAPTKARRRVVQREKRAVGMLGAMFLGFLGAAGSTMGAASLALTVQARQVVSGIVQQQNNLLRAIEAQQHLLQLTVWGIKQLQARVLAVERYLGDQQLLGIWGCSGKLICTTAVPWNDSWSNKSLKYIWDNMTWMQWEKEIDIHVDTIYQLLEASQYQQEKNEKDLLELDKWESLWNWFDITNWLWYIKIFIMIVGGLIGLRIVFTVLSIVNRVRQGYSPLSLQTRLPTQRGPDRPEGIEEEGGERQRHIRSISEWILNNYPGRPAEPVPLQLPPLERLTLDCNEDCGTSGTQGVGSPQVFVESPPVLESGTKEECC

| Structure (SMILES) | IC50 |
| --- | --- |
| COc1cccc(-c2coc3c(C)c4oc(=O)c(CCC(=O)O)c(C)c4cc23)c1 | 22.7 µM (active) |
| COc1cc(NS(=O)(=O)c2ccc(Nc3nc(-c4ccccc4)cs3)cc2)nc(OC)n1 | 20.4 µM (active) |
